Assay results: patent publication US20200079757A1, “COMPOUNDS FOR THE TREATMENT OF RESPIRATORY DISEASES” (THE UNIVERSITY OF MELBOURNE, priority 2017, published 2020)

Experiments:
[1] = tested on: SCNN1A gene expression in BEAS-2B cells; test: TGF-β-induced suppression of dexamethasone-induced SCNN1A gene expression in BEAS-2B cells; type: cell-based; conditions: for SCNN1A mRNA level, Dex / SCNN1A mRNA level, TGF-β / SCNN1A mRNA level, TGF-β/Dex / SCNN1A mRNA level, vehicle (no stimulus): BEAS-2B
Experimental: The primary assay for the activity of the novel CK1δ/ε inhibitors is the modulation of gene expression in the airway epithelial cell line, the BEAS-2B cells. The assay is conducted under several conditions. Generally, TGF-β or TNF-α is used to elicit fibrogenic or inflammatory genes, respectively. The agents are added at a concentration of 10 μM, or at the indicated concentrations for a period of 30 min prior to the addition of TGF-β/TNF-α which are incubated for a further 20 hours before the addition, in some experiments of the glucocorticoid, dexamethasone (Dex, 30 nM) for the final 4 hours of the experiment, prior to harvest of cellular RNA to measure by RT-qPCR the levels of mRNA of marker genes for inflammation and fibrogenesis. The inhaled corticosteroid (ICS), budesonide is also used in some experiments. Furthermore, the supernatants are harvested at the end of the incubation periods in selected experiments to measure the levels of CSF-2 or IL-8 by ELISA as described in (Tran et al. (2005) British Journal of Pharmacology, 145, 123-131). Prior to experimentation, BEAS-2B and A549 cells were incubated in serum-free DMEM containing 0.25% bovine serum albumin (BSA) and insulin-transferrin-selenium—containing supplement (Monomed A; CSL, Parkville, Melbourne, Australia). Where indicated, cells were treated with one of the series of synthesised compounds (0.3-10 μM) prior to exposure to 100 pM TGF-β1 (R&D Systems, Minneapolis, Minn.) or 300 pM bFGF (Promega, Madison, Wis.). Total RNA was extracted from cultured cells using illustra RNAspin Mini RNA Isolation Kit (GE Healthcare). RNA extracts were reverse-transcribed into cDNA using High-Capacity RNA-to-cDNA Kit (Applied Biosystems). Real-time PCR was then performed using a QuantStudio 6 Flex Real-Time PCR System using iTaq Universal SYBR green supermix and the following thermal protocol: 50° C. (2 min), 95° C. (10 min), then 40 cycles of 95° C. (15 sec), 60° C. (1 min). The threshold cycle (CT) values determined for target genes were normalized against those obtained for 18S ribosomal RNA (18S rRNA), which was included as internal control. The generation of specific PCR products was confirmed by dissociation curve analysis. In FIG. 1, the effects of SS9-010 are contrasted with those of PF670462 in an assay in BEAS-B cells measuring the induction of the glucocorticoid-regulated gene, SCNN1A encoding the protein epithelial sodium channel alpha subunit. Serum-starved BEAS-2B cells were treated with CK1δ/ε inhibitor PF670462 (1, 3, 10 μM) or SS9-010 (1, 3, 10 μM) 30 min prior to TGF-β1 (40 pM) for 24 hours, then stimulated with dexamethasone (30 nM) for 4 hours. RNA was then extracted and analyzed by RT-qPCR. Data are presented as mean±SEM for n=4 independent experiments. The potency of PF670462 and SS9-010 were similar.

[2] = tested on: PAI-1 gene expression in BEAS-2B cells; test: TNF-α and TGF-β induced PAI-1 gene expression in BEAS-2B cells (RT-qPCR); type: cell-based; conditions: for TNFa stimulated PAI-1 expression: 30 min pretreatment 1-10 μM, n=1, similar potency and maxima
Experimental: The primary assay for the activity of the novel CK1δ/ε inhibitors is the modulation of gene expression in the airway epithelial cell line, the BEAS-2B cells. The assay is conducted under several conditions. Generally, TGF-β or TNF-α is used to elicit fibrogenic or inflammatory genes, respectively. The agents are added at a concentration of 10 μM, or at the indicated concentrations for a period of 30 min prior to the addition of TGF-β/TNF-α which are incubated for a further 20 hours before the addition, in some experiments of the glucocorticoid, dexamethasone (Dex, 30 nM) for the final 4 hours of the experiment, prior to harvest of cellular RNA to measure by RT-qPCR the levels of mRNA of marker genes for inflammation and fibrogenesis. The inhaled corticosteroid (ICS), budesonide is also used in some experiments. Furthermore, the supernatants are harvested at the end of the incubation periods in selected experiments to measure the levels of CSF-2 or IL-8 by ELISA as described in (Tran et al. (2005) British Journal of Pharmacology, 145, 123-131). Prior to experimentation, BEAS-2B and A549 cells were incubated in serum-free DMEM containing 0.25% bovine serum albumin (BSA) and insulin-transferrin-selenium—containing supplement (Monomed A; CSL, Parkville, Melbourne, Australia). Where indicated, cells were treated with one of the series of synthesised compounds (0.3-10 μM) prior to exposure to 100 pM TGF-β1 (R&D Systems, Minneapolis, Minn.) or 300 pM bFGF (Promega, Madison, Wis.). Total RNA was extracted from cultured cells using illustra RNAspin Mini RNA Isolation Kit (GE Healthcare). RNA extracts were reverse-transcribed into cDNA using High-Capacity RNA-to-cDNA Kit (Applied Biosystems). Real-time PCR was then performed using a QuantStudio 6 Flex Real-Time PCR System using iTaq Universal SYBR green supermix and the following thermal protocol: 50° C. (2 min), 95° C. (10 min), then 40 cycles of 95° C. (15 sec), 60° C. (1 min). The threshold cycle (CT) values determined for target genes were normalized against those obtained for 18S ribosomal RNA (18S rRNA), which was included as internal control. The generation of specific PCR products was confirmed by dissociation curve analysis. In the same experiment as described in FIG. 1, the expression of the fibrogen plasminogen activator inhibitor-1 was measured (see FIG. 2). The levels of this gene are increased by both TGF-β and by Dex and they synergise when added together. The CK1 inhibitors concentration-dependently reduce the effects of each of the stimuli and further reduce baseline expression. Their potency in this effect is similar, regardless of the condition being considered. In a separate experiment BEAS-2B cells were exposed to TNF-α with(out) 30 min pretreatment with either SS9-010 or PF670462 (1-10 μM). RNA was then extracted and analyzed by RT-qPCR. Each agent inhibited TNFa stimulated PAI-1 expression with similar potency and maxima (see FIG. 3). Data are presented as mean±SD for n=1 (three technical replicates).

| SMILES | SCNN1A mRNA level, Dex ([1]; agent 3 μM) | SCNN1A mRNA level, TGF-β ([1]; agent 3 μM) | SCNN1A mRNA level, TGF-β/Dex ([1]; agent 3 μM) | SCNN1A mRNA level, vehicle (no stimulus) ([1]; agent 3 μM) | TNFa stimulated PAI-1 expression [2] | PAI-1 mRNA level, TGF-β ([2]; agent 3 μM) | PAI-1 mRNA level, TNF-α (n = 2) ([2]; agent 3 μM) | PAI-1 mRNA level, TGF-β ([2]; agent 10 μM) | PAI-1 mRNA level, TNF-α (n = 2) ([2]; agent 10 μM) | PAI-1 mRNA level, vehicle (no stimulus) ([2]; agent 10 μM) | SCNN1A mRNA level, Dex ([1]; agent 10 μM) | SCNN1A mRNA level, TGF-β ([1]; agent 10 μM) | SCNN1A mRNA level, TGF-β/Dex ([1]; agent 10 μM) | SCNN1A mRNA level, vehicle (no stimulus) ([1]; agent 10 μM) | potency compared with PF670462, induction of glucocorticoid-regulated gene SCNN1A ([1]; BEAS-2B, 1, 3, 10 μM, TGF-β1 40 pM 24 h, dexamethasone 30 nM 4 h) |
| --- | --- | --- | --- | --- | --- | --- | --- | --- | --- | --- | --- | --- | --- | --- | --- |
| Cl.Nc1nccc(-c2c(-c3ccc(F)cc3)ncn2C2CCCCC2)n1 [PF670462, 4-(1-Cyclohexyl-4-(4-fluorophenyl)-1H-imidazol-5-yl)pyrimidin-2-amine hydrochloride, reference compound] | 3.36 ± 0.25 fold control | 0.91 ± 0.08 fold control | 2.56 ± 0.08 fold control | 1.11 ± 0.10 fold control | inhibited | 1.30 ± 0.18 fold control | 0.74 fold control | 1.64 ± 0.27 fold control | 0.47 fold control | 0.26 ± 0.04 fold control | – | – | – | – | – |
| CCCCCCCCN1CCC(n2cnc(-c3ccc(F)cc3)c2-c2ccnc(N)n2)CC1 [SS8-058, 4-(4-(4-Fluorophenyl)-1-[1-octylpiperidin-4-yl]-1H-imidazol-5-yl)pyrimidin-2-amine] | – | – | – | – | – | – | – | 9.14 ± 1.23 fold control | 0.91 fold control | 0.37 ± 0.04 fold control | 6.57 fold control | 0.91 fold control | 3.77 fold control | 2.62 fold control | – |
| CNc1nccc(-c2c(-c3ccc(F)cc3)ncn2C2CCCCC2)n1 [SS9-010, 4-(1-Cyclohexyl-4-(4-fluorophenyl)-1H-imidazol-5-yl)-N-methylpyrimidin-2-amine] | 3.77 ± 0.33 fold control | 0.67 ± 0.03 fold control | 2.77 ± 0.31 fold control | 1.14 ± 0.05 fold control | inhibited | – | – | 0.64 ± 0.05 fold control | 0.43 fold control | 0.18 ± 0.00 fold control | – | – | – | – | similar |
